Assay results as given in patent US4215143A (Mitsui Toatsu Chemicals, Incorporated, priority 1978, dated 1980).

Legend:
Gastric Juice Secretion = test: Effect on gastric juice secretion in pylorus-ligated rats; format: in vivo, Male rats of the Donryu strain; conditions: 250 mg/kg, p.o.; 4 hours; control 4.9 ± 0.4; * significant vs control at the 5% level
Protocol: (§1) Male rats of the Donryu strain, 11 weeks of age, were used in groups of ten. After 24 hours of fasting, the pylorus was ligated. Four hours later, the gastric juice was collected and its volume was measured. Then, its acidity was determined by titrating an aliquot of the gastric juice with 0.05 N sodium hydroxide. Further, the activity of pepsin was determined by Anson's method. A definite amount (250 mg/kg) of a compound to be tested was orally administered immediately after the ligation of the pylorus.

Gastric Juice Acidity = test: Effect on gastric juice acidity in pylorus-ligated rats; format: in vivo, Male rats of the Donryu strain; conditions: 250 mg/kg, p.o.; 4 hours; control 92.5 ± 3.7; * significant vs control at the 5% level
Protocol: as §1

pepsin = test: Effect on pepsin activity in pylorus-ligated rats (Anson's method); format: in vivo, Male rats of the Donryu strain; conditions: 250 mg/kg, p.o.; 4 hours; control 7.4 ± 0.5; ** significant vs control at the 1% level
Protocol: as §1

Shay's Ulcer = Shay's Ulcer (pylorus ligation), anti-ulcer effect; format: in vivo, Male rats of the Wistar strain; conditions: p.o., 12 hours, vs control group
Protocol: The anti-ulcer effect of some compounds of this invention was evaluated with regard to various types of experimental gastric and duodenal ulcers. The method of evaluation for each type of ulcer is outlined below. Male rats of the Wistar strain, 7 or 8 weeks of age, were used in groups of ten. After 48 hours of fasting, the pyloric part of the stomach was ligated under ether anesthesia. Immediately after the operation, a certain amount of a compound to be tested was orally administered to each animal of a group. After 12 hours, the degree of ulceration occurring in the anterior part of the stomach was rated and regarded as an ulcer index (U.I.). Control rats were treated in the same manner as described above, except that they received no compounds to be tested. The results given in Table 1 are expressed in terms of the percentage of inhibition based on the U.I. obtained in the control group.

Stress Ulcer = Stress Ulcer (water immersion restraint), anti-ulcer effect; format: in vivo, Male rats of the Wistar strain; conditions: 250 mg/kg, p.o.; stress for 16 hours; vs control group
Protocol: The anti-ulcer effect of some compounds of this invention was evaluated with regard to various types of experimental gastric and duodenal ulcers. The method of evaluation for each type of ulcer is outlined below. Male rats of the Wistar strain, 8 weeks of age, were used in groups of ten. Each animal was immobilized in a stressing cage as developed by Takagi et al., immersed in water at 23° C. to the level of the xiphoid process, and thereby subjected to stress for 16 hours. Thereafter, the stomach was excised. The length of the ulcer formed in the glandular part of the stomach was measured and regarded as an ulcer index (U.I.). A certain amount of a compound to be tested was orally administered just before subjecting the animal to stress. The results are also expressed in terms of the percentage of inhibition based on the U.I. obtained in the control group receiving no compounds to be tested.

Aspirin Ulcer = test: Aspirin Ulcer, anti-ulcer effect; format: in vivo, Male rats of the Donryu strain; conditions: p.o., aspirin 250 mg/kg oral, 6 hours
Protocol: (§2) The anti-ulcer effect of some compounds of this invention was evaluated with regard to various types of experimental gastric and duodenal ulcers. The method of evaluation for each type of ulcer is outlined below.
Male rats of the Donryu strain, 10 or 11 weeks of age, were used in groups of ten. After 24 hours of fasting, a certain amount of a compound to be tested was orally administered to each animal of a group. Ten minutes later, aspirin was orally administered in a dose of 250 mg/kg. After 6 hours, the size of the ulcer formed in the glandular part of the stomach was rated by visual inspection and regarded as an ulcer index (U.I.). The results are also expressed in terms of the percentage of inhibition based on the U.I. obtained in the control group receiving no compounds to be tested.

Acetic Acid Ulcer = test: Acetic Acid Ulcer, healing promotion effect; format: in vivo, Male rats of the Wistar strain; conditions: p.o., twice a day for 7 days
Protocol: as §2
Male rats of the Wistar strain, 6 weeks of age, were used in groups of ten. Under ether anesthesia, each animal was laparotomized, a round frame (with an inside diameter of 5 mm) made of stainless steel was applied to the anterior wall of the stomach, and 100% acetic acid was poured into the frame. After 30 seconds, the acetic acid was removed and the abdomen was closed. Starting on the 7th day after the operation, a certain amount of a compound to be tested was orally administered twice a day to each animal of a group for a period of 7 days. Thereafter, the degree of healing of the ulcer was rated by visual insepction and regarded as an ulcer index (U.I.). The results are also expressed in terms of the percentage of healing based on the U.I. obtained in the control group receiving no compounds to be tested.

| Substance | Amount of Gastric Juice Secreted (Gastric Juice Secretion) [mL] | Acidity of Gastric Juice (Gastric Juice Acidity) [mEq/l] | Activity of Pepsin (pepsin) [mg/mL] | percentage of inhibition (ulcer index, Shay's Ulcer) (Shay's Ulcer; 100 mg/kg) [percentage] | percentage of inhibition (ulcer index, Shay's Ulcer) (Shay's Ulcer; 250 mg/kg) [percentage] | percentage of inhibition (ulcer index, Stress Ulcer) (Stress Ulcer) [percentage] | percentage of inhibition (ulcer index, Aspirin Ulcer) (Aspirin Ulcer; 100 mg/kg) [percentage] | percentage of inhibition (ulcer index, Aspirin Ulcer) (Aspirin Ulcer; 250 mg/kg) [percentage] | percentage of healing (ulcer index, Acetic Acid Ulcer) (Acetic Acid Ulcer; 100 mg/kg) [percentage] | percentage of healing (ulcer index, Acetic Acid Ulcer) (Acetic Acid Ulcer; 250 mg/kg) [percentage] |
| --- | --- | --- | --- | --- | --- | --- | --- | --- | --- | --- |
| inositol hexasulfate aluminum salt | 3.6 ± 0.4 | 57.8 ± 12.9 | 4.8 ± 0.4 | – | – | – | – | – | – | – |
| inositol hexasulfate sodium aluminum salt | 3.6 ± 0.4 | 61.1 ± 11.4 | 5.1 ± 0.5 | 87 | 90 | 30 | 42 | 49 | 23 | 28 |
